According to US6916925B1, “Dye labeled imidazoquinoline compounds” (3M Innovative Properties Co., priority 1999, dated 2005):

Columns and labels:
[1] = tested on: Peripheral blood mononuclear cells (PBMCs); assay: Cytokine Induction in Human Cells, Test Method 2 (IFN-α and TNF-α by ELISA); format: cell-based; design: key: +: indicates that the compound induced the indicated cytokine at that particular concentration; −: indicates that the compound did not induce the indicated cytokine at that particular concentration; details: 18 to 24 hours
Source text: An in vitro human blood cell system is used to assess cytokine induction. Activity is based on the measurement of interferon and tumor necrosis factor (α) (IFN and TNF, respectively) secreted into culture media as described by Testerman et. al. In “Cytokine Induction by the Immunomodulators Imiquimod and S-27609”, Journal of Leukocyte Biology, 58, 365-372 (September, 1995).
Whole blood from healthy human donors is collected by venipuncture into EDTA vacutainer tubes. Peripheral blood mononuclear cells (PBMCs) are separated from whole blood by density gradient centrifugation using Histopaque®-1077. The PBMCs are washed twice with -Hank's Balanced Salts Solution and then are suspended at 3-4×10^6 cells/mL in RPMI complete. The PBMC suspension is added to 48 well flat bottom sterile tissue culture plates (Costar, Cambridge, Mass. or Becton Dickinson Labware, Lincoln Park, N.J.) containing an equal volume of RPMI complete media containing test compound.
The compounds are solubilized in dimethyl sulfoxide (DMSO). The DMSO concentration should not exceed a final concentration of 1% for addition to the culture wells. The compounds are generally tested at concentrations ranging from 0.12 to 30 μM.
The solution of test compound is added at 60 μM to the first well containing RPMI complete and serial 3 fold dilutions are made in the wells. The PBMC suspension is then added to the wells in an equal volume, bringing the test compound concentrations to the desired range (0.12 to 30 μM). The final concentration of PBMC suspension is 1.5-2×10^6 cells/mL. The plates are covered with sterile plastic lids, mixed gently and then incubated for 18 to 24 hours at 37° C. in a 5% carbon dioxide atmosphere.
Following incubation the plates are centrifuged for 5-10 minutes at 1000 rpm (˜200×g) at 4° C. The cell-free culture supernatant is removed with a sterile polypropylene pipet and transferred to sterile polypropylene tubes. Samples are maintained at −30 to −70° C. until analysis. The samples are analyzed for interferon (α) and for tumor necrosis factor (α) by ELISA
Interferon (α) concentration is determined by ELISA using a Human Multi-Species kit from PBL Biomedical Laboratories, New Brunswick, N.J. Results are expressed in pg/mL.
Tumor necrosis factor (α) (TNF)concentration is determined using ELISA kits available from Genzyme, Cambridge, Mass.; R&D Systems, Minneapolis, Minn.; or Phanningen, San Diego, Calif. Results are expressed in pg/mL.
The labeled compounds of Examples 2 and 3 were tested for their ability to induce cytokine biosynthesis using Test Method 2 described above.

[2] = tested on: human peripheral blood mononuclear cells; assay: Flow Cytometry Analysis: binding to mononuclear cells by fluorescence; format: cell-based; details: for binding to human peripheral blood mononuclear cells (fluorescence intensity histogram): FACScan flow cytometer
Method: Whole blood was collected by venipuncture into EDTA vacutainer tubes from healthy human donors. PBMCs were separated from whole blood by ficoll hypaque (Sigma Chemicals, St. Louis, Mo.) density gradient centrifugation as described in Testerman. The PBMCs were suspended at 2×10^6 cells/mL in RPMI 1640 medium containing 10% fetal bovine serum, 2 mM L-glutamine and penicillin/streptomycin solution (RPMI complete). […] Following incubation the cells were washed two times with staining buffer (Dulbecco's Phosphate Buffered Saline without calcium and magnesium, 1% heat inactivated fetal bovine serum, and 0.1% sodium azide). The cells were suspended in staining buffer and transferred to 12×75 mm polystyrene tubes for analysis by flow cytometry. Binding to mononuclear cells was determined by fluorescence using a FACScan flow cytometer (purchased from Becton Dickinson).
The histograms of FIGS. 1 and 2 plot the fluorescence intensity with the more highly fluorescent cell populations being seen further to the right. The peak area labeled as M3 in the histograms indicates the fluorescence binding to the monocyte population in the peripheral blood mononuclear cells.

[3] = tested on: Peripheral blood mononuclear cells (PBMCs); assay: Cytokine Induction in Human Cells, Test Method 1 (IFN by A549/encephalomyocarditis bioassay, TNF by ELISA); format: cell-based; details: 24 hours
Source text: An in vitro human blood cell system is used to assess cytokine induction by compounds of the invention. Activity is based on the measurement of interferon and tumor necrosis factor (α) (IFN and TNF, respectively) secreted into culture media as described by Testerman et. al. in “Cytokine Induction by the Immunomodulators Imiquimod and S27609”, Journal of Leukocyte Biology, 58, 365-372 (September, 1995).
Whole blood from healthy human donors is collected by venipuncture into EDTA vacutainer tubes. Peripheral blood mononuclear cells (PBMCs) are separated from whole blood by Histopaque®-1077 (Sigma Chemicals, St. Louis, Mo.) density gradient centrifugation. The PBMCs are washed twice with Hank's Balanced Salts Solution (Sigma) and are then suspended at 2×10^6 cells/mL in RPMI 1640 medium containing 10% fetal bovine serum, 2 mM L-glutamine and 1% penicillin/streptomycin solution (RPMI complete). 1 mL portions of PBMC suspension are added to 12 or 24 well flat bottom sterile tissue culture plates.
The compounds are solubilized in ethanol, dimethyl sulfoxide or pyrogen free water then diluted with tissue culture water, 0.01N sodium hydroxide or 0.01N hydrochloric acid (The choice of solvent will depend on the chemical characteristics of the compound being tested.). Ethanol or DMSO concentration should not exceed a final concentration of 1% for addition to the culture wells. The compounds are generally tested using a concentration range from about 0.01 μg/mL to about 50 μg/mL.
The solution of test compound is added to the wells containing 1 ml of PBMCs in media. The plates are covered with plastic lids, mixed gently and then incubated for 24 hours at 37° C. with a 5% carbon dioxide atmosphere.
Following incubation the cell-free culture supernatant is removed with a sterile polypropylene pipet and transferred to a 12×75 mm polypropylene tube. The tubes are then centrifuged at 1000 rpm ([…]) for 10 to 15 minutes at 4° C. The supernatant is removed and placed into 2 mL sterile freezing vials. Samples are maintained at −70° C. until analyzed for cytokines.
Interferon concentrations are determined by bioassay using A549 human lung carcinoma cells challenged with encephalomyocarditis. The details of the bioassay method have been described by G. L. Brennan and L. H. Kronenberg in “Automated Bioassay of Interferons in Micro-test Plates”, Biotechniques, June/July, 78, 1983, incorporated herein by reference. Briefly stated the method is as follows: A549 cells are incubated with dilutions of IFN standard or test samples at 37° C. for 24 hours. The incubated cells are then infected with an inoculum of encephalomyocarditis virus. The infected cells are incubated for an additional 24 hours at 37° C. before quantifying for viral cytopathic effect. The viral cytopathic effect is quantified by staining of the wells with a vital dye such as crystal violet followed by visual scoring of the plates. Results are expressed as alpha reference units/mL based on the value obtained for an NIH Human Leukocyte IFN standard.
Tumor necrosis factor (α) (TNF) concentration is determined using an ELISA kit available from Genzyrne, Cambridge, Mass. The results are expressed as pg/ml.
The labeled compound of Example 1 and the unlabeled intermediate (2-(4-amino-2-ethoxymethyl-1H-imidazo[4,5-c]quinolin-1-yl)ethaneamine trihydrochloride) were tested side by side for their ability to induce cytokine biosynthesis using Test Method 1 described above. The compound of Example 1 was solubilized in ethanol. The unlabeled intermediate was solubilized in tissue culture water.

Structure (SMILES) | melting point | IFN induction ([1]; concentration 0.014 μg/ml) | TNF induction ([1]; concentration 0.014 μg/ml) | IFN induction ([1]; concentration 0.041 μg/ml) | TNF induction ([1]; concentration 0.041 μg/ml) | IFN induction ([1]; concentration 0.12 μg/ml) | TNF induction ([1]; concentration 0.12 μg/ml) | IFN induction ([1]; concentration 0.37 μg/ml) | TNF induction ([1]; concentration 0.37 μg/ml) | IFN induction ([1]; concentration 1.11 μg/ml) | TNF induction ([1]; concentration 1.11 μg/ml) | IFN induction ([1]; concentration 3.33 μg/ml) | TNF induction ([1]; concentration 3.33 μg/ml) | IFN induction ([1]; concentration 10 μg/ml) | TNF induction ([1]; concentration 10 μg/ml) | IFN induction ([1]; concentration 30 μg/ml) | TNF induction ([1]; concentration 30 μg/ml) | binding to human peripheral blood mononuclear cells (fluorescence intensity histogram) ([2]; incubated 1 hour at 37° C.) | IFN ([3]; concentration 0.1 μg/ml) | TNF ([3]; concentration 0.1 μg/ml) | also measured
CCCCc1nc2c(N)nc3ccccc3c2n1CCNC(=S)Nc1ccc(-c2c3ccc(=O)cc-3oc3cc(O)ccc23)c(C(=O)O)c1 [Example 3, 5-{[({2-[4-Amino-2-butyl-1H-imidazo[4,5-c]quinolin-1-yl]ethyl}amino)carbonthioyl]amino}-2-(6-hydroxy-3-oxo-3H-xanthen-9-yl)benzoic Acid] | > 245 °C | − | − | − | − | − | − | − | − | − | − | − | − | + | − | + | + |  |  |  | 
Cc1cc(C)n2c1C=C1C=CC(CCC(=O)NCCCCCC(=O)ON3C(=O)CCC3=O)=[N+]1[B-]2(F)F [BODIPY fluorophore, 6-((4,4-difluoro-5,7-dimethyl4-bora-3a,4a-diaza-s-indacene-3-propionyl)amino)hexanoic acid, succinimidyl ester, reference compound] |  |  |  |  |  |  |  |  |  |  |  |  |  |  |  |  |  | does not |  |  | 
CCOCc1nc2c(N)nc3ccccc3c2n1CCNC(=O)CCCCCNC(=O)CCc1ccc2n1[B-](F)(F)[N+]1=C(C)C=C(C)C1=C2 [Example 1, N-[2-(4-Amino-2-ethoxymethyl-1H-imidazo[4,5-c]quinolin-1-yl)ethyl]-6-[(4,4-difluoro-5,7-dimethyl-4-bora-3a,4a-diaza-s-indacene-3-propionyl)amino]hexanoamide] |  |  |  |  |  |  |  |  |  |  |  |  |  |  |  |  |  | binds to human peripheral blood mononuclear cells | 554 U/ml | 46 pg/mL | IFN ([3]; concentration 0.01 μg/ml): 16 U/ml; TNF ([3]; concentration 0.01 μg/ml): 0 pg/mL; IFN ([3]; concentration 0.03 μg/ml): 47 U/ml; TNF ([3]; concentration 0.03 μg/ml): 42 pg/mL; IFN ([3]; concentration 0.3 μg/ml): 2878 U/ml; TNF ([3]; concentration 0.3 μg/ml): 73 pg/mL; IFN ([3]; concentration 1 μg/ml): 421 U/ml; TNF ([3]; concentration 1 μg/ml): 369 pg/mL; IFN ([3]; concentration 3 μg/ml): 62 U/ml; TNF ([3]; concentration 3 μg/ml): 869 pg/mL; binding to monocytes compared with other PBMCs ([2]; incubated 1 hour at 37° C., peak area M3 = monocyte population): monocytes bind more effectively than other PBMCs; binding to monocytes ([2]; incubated with human PBMCs at 4° C. for 1 hour): did not show significant binding
COCCc1nc2c(N)nc3ccccc3c2n1CCCCNC(=S)Nc1ccc(-c2c3ccc(=O)cc-3oc3cc(O)ccc23)c(C(=O)O)c1 [Example 2] | > 245 °C | − | − | − | − | − | − | − | − | − | − | − | + | + | + | + | + |  |  |  | 
CCOCc1nc2c(N)nc3ccccc3c2n1CCN.Cl.Cl.Cl [Unlabeled Intermediate, 2-(4-amino-2-ethoxymethyl-1H-imidazo[4,5-c]quinolin-1-yl)ethaneamine trihydrochloride] |  |  |  |  |  |  |  |  |  |  |  |  |  |  |  |  |  |  | 421 U/ml | 0 pg/mL | IFN ([3]; concentration 0.3 μg/ml): 2878 U/ml; TNF ([3]; concentration 0.3 μg/ml): 0 pg/mL; IFN ([3]; concentration 1 μg/ml): 2878 U/ml; TNF ([3]; concentration 1 μg/ml): 49 pg/mL; IFN ([3]; concentration 3 μg/ml): 81 U/ml; TNF ([3]; concentration 3 μg/ml): 538 pg/mL; IFN ([3]; concentration 10 μg/ml): 140 U/ml; TNF ([3]; concentration 10 μg/ml): 2640 pg/mL
